Test results published in publication PMC12654597, “Dawson- and Lindqvist-Type Hybrid Polyoxometalates: Synthesis, Characterization and Ca^2+-ATPase Inhibition Potential” (Molecules, 2025).
Read-outs that look alike come from different tables or passages of the source.

Assays:
Ca^2+-ATPase = conditions: literature values for known P-type ATPase inhibitors; cited from earlier work
[1] = molecular target: T1, sarcoplasmic reticulum (SR) Ca^2+-ATPase (Oryctolagus cuniculus, UniProt P04191); conditions: cited from earlier work; for IC50: same experimental model, method and conditions
T1 construct: The experiments were performed with isolated sarcoplasmic reticulum vesicles (SRVs); from tissue; host or cells: rabbit skeletal muscle sarcoplasmic reticulum vesicles
T1 sequence (P04191 1-994 isoform P04191-2): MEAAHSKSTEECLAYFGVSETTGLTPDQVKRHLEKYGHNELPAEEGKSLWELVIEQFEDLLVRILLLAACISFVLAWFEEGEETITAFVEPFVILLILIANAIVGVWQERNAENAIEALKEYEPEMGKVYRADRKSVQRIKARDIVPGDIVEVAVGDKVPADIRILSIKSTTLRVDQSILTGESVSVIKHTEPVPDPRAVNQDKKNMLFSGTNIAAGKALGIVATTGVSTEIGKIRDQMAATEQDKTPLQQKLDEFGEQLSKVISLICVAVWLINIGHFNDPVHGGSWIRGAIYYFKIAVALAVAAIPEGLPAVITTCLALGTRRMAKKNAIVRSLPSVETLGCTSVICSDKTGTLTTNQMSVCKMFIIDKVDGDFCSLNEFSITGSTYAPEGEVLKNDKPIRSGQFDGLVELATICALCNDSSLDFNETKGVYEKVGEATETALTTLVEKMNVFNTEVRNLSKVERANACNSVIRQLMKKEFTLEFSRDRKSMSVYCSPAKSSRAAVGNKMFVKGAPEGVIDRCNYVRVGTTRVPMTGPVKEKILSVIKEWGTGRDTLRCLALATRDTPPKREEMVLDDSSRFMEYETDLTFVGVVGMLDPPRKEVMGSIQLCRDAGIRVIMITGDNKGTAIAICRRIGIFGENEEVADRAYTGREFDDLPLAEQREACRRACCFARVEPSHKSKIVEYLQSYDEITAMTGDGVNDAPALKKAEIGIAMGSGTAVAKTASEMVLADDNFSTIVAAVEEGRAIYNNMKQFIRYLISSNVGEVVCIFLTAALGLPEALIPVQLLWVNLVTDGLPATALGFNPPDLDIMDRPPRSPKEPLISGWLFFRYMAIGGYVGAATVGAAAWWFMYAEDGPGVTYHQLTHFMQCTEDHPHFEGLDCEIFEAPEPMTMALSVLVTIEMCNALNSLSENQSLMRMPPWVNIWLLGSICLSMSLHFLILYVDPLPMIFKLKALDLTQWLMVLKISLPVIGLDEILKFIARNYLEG

[2] = molecular target: T1, sarcoplasmic reticulum (SR) Ca^2+-ATPase; assay: Sarcoplasmic reticulum Ca2+-ATPase activity, coupled enzyme pyruvate kinase/lactate dehydrogenase assay; assay type: biochemical, rabbit; conditions: for IC50: SR vesicles from rabbit skeletal muscle, pH 7.0, 25 °C, uncoupled activity (A23187), triplicate
Text: In order to evaluate the inhibition potential for each of the POMs compounds regarding the Ca^2+-ATPase activity, increasing concentrations of each POM and a control without the presence of the inhibitor were used in order to determine the IC50 values. For each of these assays, an absorbance versus time kinetic is obtained. In the absence of the POM, the control assay was obtained—that is, a kinetic with a higher slope, while by increasing the concentrations of the POMs, lower enzymatic kinetic slopes were found due to the inhibition of the ATPase activity (Figure S1).
Using this method, the effects of the inhibitors can be observed in real time and recorded within 2 to 5 min upon addition of the inhibitor, as described previously. […] For each compound, the equation governing the trendline of this can be solved for 50% in order to determine the IC50 value.
The sarcoplasmic reticulum vesicles (SRV) that contain the Ca^2+-ATPase was previously prepared from rabbit skeletal muscles as described elsewhere. The vesicles were suspended in 0.1 M KCl, 10 mM HEPES (pH 7.0), diluted 1:1 with 2.0 M sucrose, and frozen in liquid nitrogen for storage at −80 °C. […] Stock solutions of the POMs compounds (1 mM) were freshly prepared by dissolving the solid compound in miliQ water and keeping the solution at room temperature before use.
For carrying out the determination of Ca^2+-ATPase activity assays, the following medium was prepared: 25 mM HEPES (pH 7.0), 100 mM KCl, 5 mM MgCl2 and 50 µM CaCl2.
The experiments were performed with isolated sarcoplasmic reticulum vesicles (SRVs) previously diluted to 1 mg/mL with a sucrose concentration of 0.25 M (Figure 11). 0.8 mL of medium described above was added into a quartz cuvette. 0.42 mM phosphoenolpyruvate (PEP), 18 IU lactate dehydrogenase, 7.5 IU 155 pyruvate kinase, and 2.5 mM ATP without (control) or with increasing concentrations of POMs were added to this medium. […] The absorbance of the solution was measured spectrophotometrically at 340 nm, 25 °C, and an auto zero was performed. Subsequently, 0.25 mM NADH was added, allowing the absorbance value to stabilize to about 1.3 O.D. The assay begins after the addition of 10 μg/mL of Ca^2+-ATPase (basal activity) and one minute after ionophore A23187 (calcimycin) 4% (w/w) was added (uncoupled activity), and the kinetics followed for about 2 min in the absence or in the presence of increasing concentrations of POMs, from 0 to 15 μM for compound 1 and from 0 to 80 μM for compound 2. […]
For each experimental condition, the experiments were always performed in triplicate. Therefore, the determination of Ca^2+-ATPase activity without and with the inhibitor was made using a continuous enzymatic method using the measurement of absorbance versus time (Figure S1), as described elsewhere.

## CC(=O)C1=C(O)[C@@H]2[C@H]3c4c[nH]c5cccc(c45)C[C@H]3C(C)(C)N2C1=O [CPA, cyclopiazonic acid]
Ca^2+-ATPase
  IC50: 0.1 to 0.2 µM

## C/C=C(/C)C(=O)O[C@H]1C(C)=C2[C@H]([C@@H]1OC(=O)CCCCCCC)[C@@](C)(OC(C)=O)C[C@H](OC(=O)CCC)[C@@]1(O)[C@H]2OC(=O)[C@@]1(C)O [TG, thapsigargin]
Ca^2+-ATPase
  IC50: 0.001 to 0.029 µM

## [O]=[V]([OH])([OH])[O][V]1(=[O])[O][V]2(=[O])[O][V](=[O])([O][V](=[O])([OH])[OH])[O][V](=[O])([O]2)[O][V]2(=[O])[O][V](=[O])([O][V](=[O])([OH])[OH])[O][V](=[O])([O]1)[O]2 (stereo not shown) [V10, decavanadate]
[1]
  IC50: 15 µM

## Cc1ccc(-c2cc(C(F)(F)F)nn2-c2ccc(S(N)(=O)=O)cc2)cc1 [celecoxib]
Ca^2+-ATPase
  IC50: 35 µM

## (C2H8N1)6[V2Mo18O62].3H2O [compound 1]
[2]
  IC50: 3.4 µM
[2]; ratio of IC50 values, compound 1 vs compound 2
  fold inhibition potential regarding ATPase activity relative to compound 2: about 13 fold

## (C4H16N3)4[V2W4O19]3.12H2O [compound 2]
[2]
  IC50: 45.1 µM
[2]; comparison of IC50 values, compound 2 vs TeW6
  Ca^2+-ATPase inhibition potency relative to Anderson type TeW6: four times more potent

## metformin-decavanadate [Metf-V10]
[1]; metformin-decavanadate vs V10
  IC50 ATPase inhibition value relative to V10 alone: six times higher
[1]
  IC50: 87.4 µM
